Converted amounts (≈) assume the structure as drawn.
These molecules were tested on rhinovirus B14 (assay: Compound was evaluated for inhibitory effect against human Rhinovirus-14). Settings: not given.
Format: functional
`OCCOCOCc1cc(CCCCCOc2c(Cl)cc(C3=NCCO3)cc2Cl)on1` was tested, and the MIC was 0.09 µM (≈ 0.0426 µg/mL).

Same assay, conditions: Rhinovirus B; read-out: MIC
In the case of `Cc1cc(CCCCCOc2ccc(-c3nc(C)c(C)o3)cc2)on1`, the MIC is reported as 0.14 µM (≈ 0.0477 µg/mL).
Molecule `Cc1cc(-c2nnn(C)n2)cc(C)c1OCCCCCc1cc(COCOCCO)no1` has an MIC of 0.06 µM (≈ 0.0267 µg/mL).
`Cc1cc(CCCCCOc2ccc(C3=NCCO3)cc2Cl)on1` showed an MIC of 2.41 µM (≈ 0.841 µg/mL).
In the case of `Cc1cc(CCCCCOc2c(Cl)cc(C3=NCCO3)cc2Cl)on1` [WIN-54954], the MIC is reported as 1.5 µM (≈ 0.575 µg/mL).
Molecule `CCC1COC(c2ccc(OCCCCCCCc3cc(C)no3)cc2)=N1` (stereo not given) has an MIC of 0.03 µM (≈ 0.0111 µg/mL).
With `Cc1cc(CCCCCCCOc2ccc(C3=NC(C)(C)CO3)cc2)on1` the MIC was 0.16 µM (≈ 0.0593 µg/mL).
`Cc1cc(CCCCCCCOc2ccc(C3=NC(C)CO3)cc2)on1` (stereo not given) gave an MIC of 0.05 µM (≈ 0.0178 µg/mL).
With `Cc1cc(CCCCCOc2ccc(C3=NCCO3)cc2)on1` the MIC was 0.51 µM (≈ 0.16 µg/mL).
With `OCCOCOCc1cc(CCCCCOc2c(Cl)cc(C3=NCCO3)cc2Cl)on1` the MIC was 0.06 µM (≈ 0.0284 µg/mL).
